This is an account of results in patent publication US20080188528A1, “Modulators of C3a receptor and methods of use thereof” (priority 2006, published 2008).

The structures appear in SMILES notation. Structures can show the parent of a compound that is named as a salt.

Assay [1] has as its target T1, human C3a receptor (C3aR) (Homo sapiens, UniProt Q16581).
T1 construct: expressed in transfected cells
T1 sequence (Q16581 1-482): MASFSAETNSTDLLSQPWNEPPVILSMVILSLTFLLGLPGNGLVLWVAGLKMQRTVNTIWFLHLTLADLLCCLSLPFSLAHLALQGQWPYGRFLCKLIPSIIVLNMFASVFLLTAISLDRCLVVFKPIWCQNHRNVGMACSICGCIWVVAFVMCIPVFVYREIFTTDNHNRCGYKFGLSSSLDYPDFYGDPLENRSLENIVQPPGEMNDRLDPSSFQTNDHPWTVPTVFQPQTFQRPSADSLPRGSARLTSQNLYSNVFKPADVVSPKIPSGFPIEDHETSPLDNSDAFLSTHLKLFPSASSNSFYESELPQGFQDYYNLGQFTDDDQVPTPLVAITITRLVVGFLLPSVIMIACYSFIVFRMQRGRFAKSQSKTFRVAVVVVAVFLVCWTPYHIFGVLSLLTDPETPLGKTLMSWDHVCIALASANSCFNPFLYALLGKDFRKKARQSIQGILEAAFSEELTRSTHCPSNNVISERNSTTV
In words: Inhibition of human [125I]-C3a binding to human C3a receptor (SPA, membranes of HEK293 cells expressing recombinant C3aR). Particulars: 0.1 nM [125I]-C3a, 3 hours at room temperature; Table 6. The gist of the method:
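HEK293 C3aR membranes were pre-coupled to WGA SPA beads and incubated 3 h at room temperature with 0.1 nM [125I]-C3a in HEPES pH 7.4 buffer containing 0.25% BSA and 0.2% CHAPS, DMSO ≤1%. Nonspecific binding was defined with 1 μM unlabeled C3a. IC50 came from nonlinear least-squares fitting.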

The conditions of assay [2]: cited from earlier work.

Consider `COc1ccn(C(c2ccccc2)c2ccccc2)c(=O)c1C(=O)N[C@@H](CCCNC(C)=N)C(=O)O` [Compound 122, (2S)-2-({[1-(diphenylmethyl)-4-methoxy-2-oxo-1,2-dihydropyridin-3-yl]carbonyl}amino)-5-(ethanimidoylamino)pentanoic acid•TFA], for which the IC50 in assay [1] fell in the range of 500 to 20000 nM.

As to `CCOC(=O)CC(=N)NCCC[C@H](NC(=O)c1ccc(C(c2ccccc2)c2ccccc2)s1)C(=O)O` [Compound 123, (2S)-2-({[5-(diphenylmethyl)thiophen-2-yl]carbonyl}amino)-5-[(3-ethoxy-3-oxopropanimidoyl)amino]pentanoic acid•TFA], the IC50 in assay [1] lay in the range of 500 to 20000 nM.

With `CC(=N)NCCC[C@H](NC(=O)c1ccc(C(c2ccc(C)cc2)c2ccc(C)cc2)s1)C(=O)O` [Compound 124, (2S)-2-[({5-[bis(4-methylphenyl)methyl]thiophen-2-yl}carbonyl)amino]-5-(ethanimidoylamino)pentanoic acid•TFA], the IC50 in assay [1] lay within 500 to 20000 nM.

Take `CC(=N)NCCC[C@H](NC(=O)c1ccc(C(c2ccc(Cl)cc2)c2ccc(Cl)cc2)s1)C(=O)O` [Compound 125, (2S)-2-[({5-[bis(4-chlorophenyl)methyl]thiophen-2-yl}carbonyl)amino]-5-(ethanimidoylamino)pentanoic acid•TFA]: in assay [1], the IC50 lay within 50 to 500 nM.

On to `CC(=N)NCCC[C@H](NC(=O)c1ccc(C(c2ccccc2Cl)c2ccccc2Cl)s1)C(=O)O` [Compound 126, (2S)-2-[({5-[bis(2-chlorophenyl)methyl]thiophen-2-yl}carbonyl)amino]-5-(ethanimidoylamino)pentanoic acid•TFA], for which the IC50 in assay [1] lay in the range of 500 to 20000 nM.

With `CC(=N)NCCC[C@H](NC(=O)c1ccc(C(c2cccs2)c2cccs2)s1)C(=O)O` [Compound 127], in assay [1], the IC50 fell in the range of 50 to 500 nM.

Consider `CC(=N)NCCC[C@H](NC(=O)c1ccc(C(c2ccc(F)cc2)c2ccc(F)cc2)s1)C(=O)O` [Compound 128, (2S)-2-[({5-[bis(4-fluorophenyl)methyl]thiophen-2-yl}carbonyl)amino]-5-(ethanimidoylamino)pentanoic acid•TFA], for which, in assay [1], the IC50 was in the range of 50 to 500 nM.

On to `CC(=N)NCCC[C@H](NC(=O)c1ccc(C(c2cccc(F)c2)c2cccc(F)c2)s1)C(=O)O` [Compound 129, (2S)-2-[({5-[bis(3-fluorophenyl)methyl]thiophen-2-yl}carbonyl)amino]-5-(ethanimidoylamino)pentanoic acid•TFA], for which the IC50 in assay [1] fell in the range of 50 to 500 nM.

For `CC(=N)NCCC[C@H](NC(=O)c1ccc(C(c2cccc(C(F)(F)F)c2)c2cccc(C(F)(F)F)c2)s1)C(=O)O` [Compound 130, (2S)-2-{[(5-{Bis[3-(trifluoromethyl)phenyl]methyl}thiophen-2-yl)carbonyl]amino}-5-(ethanimidoylamino)pentanoic acid], the IC50 in assay [1] was in the range of 500 to 20000 nM.

As to `CC(=N)NCCC[C@H](NC(=O)c1ccc(C(c2cccc(Cl)c2)c2cccc(Cl)c2)s1)C(=O)O` [Compound 131, (2S)-2-[({5-[bis(3-chlorophenyl)methyl]thiophen-2-yl}carbonyl)amino]-5-(ethanimidoylamino)pentanoic acid•TFA], the IC50 in assay [1] is below 50 nM.

For the compound `CC(C)C(=N)NCCC[C@H](NC(=O)c1ccc(C(c2ccccc2)c2ccccc2)s1)C(=O)O` [Compound 132, (2S)-2-({[5-(diphenylmethyl)thiophen-2-yl]carbonyl}amino)-5-[(2-methylpropanimidoyl)amino]pentanoic acid•TFA], in assay [1], the IC50 was in the range of 500 to 20000 nM.

On to `N=CNCCC[C@H](NC(=O)c1ccc(C(c2ccccc2)c2ccccc2)s1)C(=O)O` [Compound 133, (2S)-2-({[5-(diphenylmethyl)thiophen-2-yl]carbonyl}amino)-5-[(iminomethyl)amino]pentanoic acid•TFA], for which the IC50 in assay [1] lay within 50 to 500 nM.

Consider `CC(=N)Nc1cccc([C@H](NC(=O)c2ccc(C(c3ccccc3)c3ccccc3)s2)C(=O)O)c1` [Compound 134, (2S)-({[5-(Diphenylmethyl)thiophen-2-yl]carbonyl}amino)[3-(ethanimidoylamino)phenyl]ethanoicacid], for which the IC50 in assay [1] lay within 500 to 20000 nM.

Turning to `CC(=N)Nc1ccc([C@H](NC(=O)c2ccc(C(c3ccccc3)c3ccccc3)s2)C(=O)O)cc1` [Compound 135, (2S)-({[5-(Diphenylmethyl)thiophen-2-yl]carbonyl}amino)[4-(ethanimidoylamino)phenyl]ethanoicacid], in assay [1], the IC50 is 500 to 20000 nM.

As to `C/C(=N\O)NCCC[C@H](NC(=O)c1ccc(C(c2ccccc2)c2ccccc2)s1)C(=O)O` [Compound 136, (2S)-2-({[5-(diphenylmethyl)thiophen-2-yl]carbonyl}amino)-5-{[1-(hydroxyamino)ethylidene]amino}pentanoic acid•TFA], in assay [1], the IC50 was 50 to 500 nM.

In the case of `NC(N)=NCCC[C@H](NC(=O)COCC(c1ccccc1)c1ccccc1)C(=O)O` [SB-290157], the airway inflammation entry in assay [2] (asthma model) is given as “reduction of airway inflammation”. In assay [2] (in vivo), the neutrophil recruitment result was “inhibition of neutrophil recruitment” and the paw edema result is on record as “decreased paw edema”.
